Where two headings read alike, the source gives them in different places.
Legend:
[1] = target: human Farnesoid X receptor ligand-binding domain/Gal4 DNA binding domain chimera (Homo sapiens (Human), UniProt Q96RI1); experiment: Cell-based assay of FXR activation (FXR-UAS-bla HEK 293T beta-lactamase reporter); conditions: cellular FXR beta-lactamase reporter assay; for pEC50 / EC50: FXR-UAS-bla HEK 293T cells, 16 h, pEC50 = -log EC50; for % Efficacy / Emax: extent of activation relative to GW4064; for Emax: HEK-293T, read-out: % Efficacy
Sequence of human Farnesoid X receptor ligand-binding domain/Gal4 DNA binding domain chimera (Q96RI1 262-486, change not shown): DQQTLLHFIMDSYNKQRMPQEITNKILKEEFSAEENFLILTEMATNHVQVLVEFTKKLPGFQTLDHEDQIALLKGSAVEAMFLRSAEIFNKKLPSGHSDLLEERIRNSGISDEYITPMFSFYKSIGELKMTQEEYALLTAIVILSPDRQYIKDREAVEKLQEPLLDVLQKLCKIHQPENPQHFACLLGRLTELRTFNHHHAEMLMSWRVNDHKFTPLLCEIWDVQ
Sequence of human Farnesoid X receptor ligand-binding domain/Gal4 DNA binding domain chimera (P04386 1-147 partner): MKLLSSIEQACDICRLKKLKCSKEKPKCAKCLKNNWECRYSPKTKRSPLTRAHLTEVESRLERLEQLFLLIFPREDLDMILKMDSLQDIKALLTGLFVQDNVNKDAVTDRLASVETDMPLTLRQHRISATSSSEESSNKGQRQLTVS
Method in brief: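 HEK 293T cells stably expressing a Gal4-fused human FXR LBD and a UAS-driven beta-lactamase reporter were incubated with serially diluted compounds for 16 h at 37 °C in phenol red-free DMEM with 2% charcoal-stripped FBS. CCF4 FRET read-out: excitation 409 nm, emission 447 nm. pEC50 comes from a 3-parameter logistic fit, and efficacy is given as % of GW4064.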

[2] = target: ligand binding domain of human FXR (Homo sapiens (Human), UniProt Q96RI1); experiment: FXR ligand binding assay (LanthaScreen TR-FRET, SRC2-2 peptide recruitment); conditions: for pEC50 / EC50: -log EC50, concentration required to produce 50% activation; for Emax: read-out: % Efficacy
Sequence of ligand binding domain of human FXR (Q96RI1 262-486): as the sequence (Q96RI1 262-486, change not shown) above

[3] = extent of activation relative to GW4064

Row | SMILES | pEC50 [1] | % Efficacy [1] | pEC50 [2] | % Efficacy [2, 3] | Emax [1] | EC50 [1] | Emax [2, 3] | EC50 [2] | Emax [2]
1 | O=C(NS(=O)(=O)C1CC1)c1ccc(N2C[C@@H]3C[C@H]2C[C@H]3OCc2c(-c3ccccc3C(F)(F)F)noc2C2CC2)c(F)c1 [Compound I-202, 4-((1S,4S,5R)-5-((5-cyclopropyl-3-(2-(trifluoromethyl)phenyl)isoxazol-4-yl)methoxy)-2-azabicyclo[2.2.1]heptan-2-yl)-N-(cyclopropylsulfonyl)-3-fluorobenzamide] | 9.4 | 114% | 8.5 | 215% | – | – | – | – | –
2 | Cc1cccc(Cl)c1-c1noc(C2CC2)c1CO[C@@H]1C[C@@H]2C[C@H]1CN2c1ccc(C(=O)NS(=O)(=O)C2CCOCC2)cc1 [Compound I-203, 4-((1S,4S,5R)-5-((3-(2-chloro-6-methylphenyl)-5-cyclopropylisoxazol-4-yl)methoxy)-2-azabicyclo[2.2.1]heptan-2-yl)-N-((tetrahydro-2H-pyran-4-yl)sulfonyl)benzamide] | – | – | 9 | – | 102% | 0.158 nM | 157% | – | –
3 | CCCS(=O)(=O)NC(=O)c1ccc(N2C[C@@H]3C[C@H]2C[C@H]3OCc2c(-c3c(Cl)cccc3Cl)noc2C2CC2)nc1 [Compound I-204, 6-((1S,4S,5R)-5-((5-cyclopropyl-3-(2,6-dichlorophenyl)isoxazol-4-yl)methoxy)-2-azabicyclo[2.2.1]heptan-2-yl)-N-(propylsulfonyl)nicotinamide] | – | – | 8.4 | – | 104% | 2.51 nM | 136% | – | –
4 | O=C(NS(=O)(=O)C1CC1)c1ccc(N2C[C@@H]3C[C@H]2C[C@H]3OCc2c(-c3c(Cl)cccc3Cl)noc2C2CC2)nc1 [Compound I-205, 6-((1S,4S,5R)-5-((5-cyclopropyl-3-(2,6-dichlorophenyl)isoxazol-4-yl)methoxy)-2-azabicyclo[2.2.1]heptan-2-yl)-N-(cyclopropylsulfonyl)nicotinamide] | – | – | 8.4 | – | 104% | 10 nM | 142% | – | –
5 | CCCS(=O)(=O)NC(=O)c1cnc(N2C[C@@H]3C[C@H]2C[C@H]3OCc2c(-c3c(Cl)cccc3Cl)noc2C2CC2)c(F)c1 [Compound I-206, 6-((1S,4S,5R)-5-((5-cyclopropyl-3-(2,6-dichlorophenyl)isoxazol-4-yl)methoxy)-2-azabicyclo[2.2.1]heptan-2-yl)-5-fluoro-N-(propylsulfonyl)nicotinamide] | – | – | 8.4 | – | 104% | 1.58 nM | 159% | – | –
6 | O=C(NS(=O)(=O)C1CC1)c1cnc(N2C[C@@H]3C[C@H]2C[C@H]3OCc2c(-c3c(Cl)cccc3Cl)noc2C2CC2)c(F)c1 [Compound I-207, 6-((1S,4S,5R)-5-((5-cyclopropyl-3-(2,6-dichlorophenyl)isoxazol-4-yl)methoxy)-2-azabicyclo[2.2.1]heptan-2-yl)-N-(cyclopropylsulfonyl)-5-fluoronicotinamide] | – | – | 8.6 | – | 104% | 3.98 nM | 152% | – | –
7 | CCCS(=O)(=O)NC(=O)c1ccc(N2C[C@@H]3C[C@H]2C[C@H]3OCc2c(-c3c(Cl)cccc3Cl)noc2C2(F)CC2)nc1 [Compound I-208, 6-[(1S,4S,5R)-5-[[3-(2,6-dichlorophenyl)-5-(1 I-fluorocyclopropyl)-1,2-oxazol-4-yl]methoxy]-2-azabicyclo[2.2.1]heptan-2-yl]-N-(propane-1-sulfonyl)pyridine-3-carboxamide] | – | – | – | – | 104% | 5.01 nM | 166% | 10 nM | –
8 | O=C(NS(=O)(=O)C1CC1)c1ccc(N2C[C@@H]3C[C@H]2C[C@H]3OCc2c(-c3c(Cl)cccc3Cl)noc2C2(F)CC2)nc1 [Compound I-209, N-(cyclopropanesulfonyl)-6-[(1S,4S,5R)-5-{[3-(2,6-dichlorophenyl)-5-(1-fluorocyclopropyl)-1,2-oxazol-4-yl]methoxy}-2-azabicyclo[2.2.1]heptan-2-yl]pyridine-3-carboxamide] | – | – | 7.8 | – | 104% | 15.8 nM | 160% | – | –
9 | O=C(NS(=O)(=O)CCO)c1ccc(N2C[C@@H]3C[C@H]2C[C@H]3OCc2c(-c3c(Cl)cccc3Cl)noc2C2CC2)cc1 [Compound I-210, 4-[(1S,4S,5R)-5-{[5-cyclopropyl-3-(2,6-dichlorophenyl)-1,2-oxazol-4-yl]methoxy}-2-azabicyclo[2.2.1]heptan-2-yl]-N-(2-hydroxyethanesulfonyl)benzamide] | – | – | 8.6 | – | – | < 31.6 nM | 148% | – | –
10 | CC(=O)OCCS(=O)(=O)NC(=O)c1ccc(N2C[C@@H]3C[C@H]2C[C@H]3OCc2c(-c3c(Cl)cccc3Cl)noc2C2CC2)cc1 [Compound I-211, 2-[({4-[(1S,4S,5R)-5-{[5-cyclopropyl-3-(2,6-dichlorophenyl)-1,2-oxazol-4-yl]methoxy}-2-azabicyclo[2.2.1]heptan-2-yl]phenyl}formamido)sulfonyl]ethyl Acetate] | – | – | 8.4 | – | 105% | 1 nM | 152% | – | –
11 | O=C(NS(=O)(=O)CCOC(=O)C1CC1)c1ccc(N2C[C@@H]3C[C@H]2C[C@H]3OCc2c(-c3c(Cl)cccc3Cl)noc2C2CC2)cc1 [Compound I-212, 2-[({4-[(1S,4S,5R)-5-{[5-cyclopropyl-3-(2,6-dichlorophenyl)-1,2-oxazol-4-yl]methoxy}-2-azabicyclo[2.2.1]heptan-2-yl]phenyl}formamido)sulfonyl]ethyl Cyclopropanecarboxylate] | – | – | 9.2 | – | 107% | 2.51 nM | 136% | – | –
12 | CC(C)C(=O)OCCS(=O)(=O)NC(=O)c1ccc(N2C[C@@H]3C[C@H]2C[C@H]3OCc2c(-c3c(Cl)cccc3Cl)noc2C2CC2)cc1 [Compound I-213, 2-[({4-[(1S,4S,5R)-5-{[5-cyclopropyl-3-(2,6-dichlorophenyl)-1,2-oxazol-4-yl]methoxy}-2-azabicyclo[2.2.1]heptan-2-yl]phenyl}formamido)sulfonyl]ethyl 2-methylpropanoate] | – | – | 9.4 | – | – | < 31.6 nM | 131% | – | –
13 | CC(=O)OCCCS(=O)(=O)NC(=O)c1ccc(N2C[C@@H]3C[C@H]2C[C@H]3OCc2c(-c3c(Cl)cccc3Cl)noc2C2CC2)cc1 [Compound I-214, 3-[({4-[(1S,4S,5R)-5-{[5-cyclopropyl-3-(2,6-dichlorophenyl)-1,2-oxazol-4-yl]methoxy}-2-azabicyclo[2.2.1]heptan-2-yl]phenyl}formamido)sulfonyl]propyl Acetate] | – | – | 8.6 | – | 105% | 2.51 nM | 138% | – | –
14 | O=C(NS(=O)(=O)CCCO)c1ccc(N2C[C@@H]3C[C@H]2C[C@H]3OCc2c(-c3c(Cl)cccc3Cl)noc2C2CC2)cc1 [Compound I-215, 4-[(1S,4S,5R)-5-{[5-cyclopropyl-3-(2,6-dichlorophenyl)-1,2-oxazol-4-yl]methoxy}-2-azabicyclo[2.2.1]heptan-2-yl]-N-(3-hydroxypropanesulfonyl)benzamide] | – | – | 8.6 | – | 107% | 1.58 nM | 142% | – | –
15 | CC(=O)OC(C)CCS(=O)(=O)NC(=O)c1ccc(N2C[C@@H]3C[C@H]2C[C@H]3OCc2c(-c3c(Cl)cccc3Cl)noc2C2CC2)cc1 (stereo partly drawn) [Compound I-216, 4-[({4-[(1S,4S,5R)-5-{[5-cyclopropyl-3-(2,6-dichlorophenyl)-1,2-oxazol-4-yl]methoxy}-2-azabicyclo[2.2.1]heptan-2-yl]phenyl}formamido)sulfonyl]butan-2-yl Acetate] | – | – | 9.4 | – | 112% | 0.398 nM | – | – | 145%
16 | CC(O)CCS(=O)(=O)NC(=O)c1ccc(N2C[C@@H]3C[C@H]2C[C@H]3OCc2c(-c3c(Cl)cccc3Cl)noc2C2CC2)cc1 (stereo partly drawn) [Compound I-217, 4-[(1S,4S,5R)-5-{[5-cyclopropyl-3-(2,6-dichlorophenyl)-1,2-oxazol-4-yl]methoxy}-2-azabicyclo[2.2.1]heptan-2-yl]-N-(3-hydroxybutanesulfonyl)benzamide] | – | – | 9.9 | – | 111% | 1 nM | – | – | 142%
17 | CC(CCS(=O)(=O)NC(=O)c1ccc(N2C[C@@H]3C[C@H]2C[C@H]3OCc2c(-c3c(Cl)cccc3Cl)noc2C2CC2)cc1)OC(=O)CCC(=O)O (stereo partly drawn) [Compound I-218, 4-({4-[({4-[(1S,4S,5R)-5-{[5-cyclopropyl-3-(2,6-dichlorophenyl)-1,2-oxazol-4-yl]methoxy}-2-azabicyclo[2.2.1]heptan-2-yl]phenyl}formamido)sulfonyl]butan-2-yl}oxy)-4-oxobutanoic Acid] | – | – | – | – | 101% | 5.01 nM | 146% | 2.51 nM | –
18 | O=C(NS(=O)(=O)CCC(O)CO)c1ccc(N2C[C@@H]3C[C@H]2C[C@H]3OCc2c(-c3c(Cl)cccc3Cl)noc2C2CC2)cc1 (stereo partly drawn) [Compound I-219, 4-[(1S,4S,5R)-5-{[5-cyclopropyl-3-(2,6-dichlorophenyl)-1,2-oxazol-4-yl]methoxy}-2-azabicyclo[2.2.1]heptan-2-yl]-N-(3,4-dihydroxybutanesulfonyl)benzamide] | – | – | 8.6 | – | 104% | 39.8 nM | 144% | – | –
19 | O=C(NS(=O)(=O)[C@H]1CC[C@@H](O)CC1)c1ccc(N2C[C@@H]3C[C@H]2C[C@H]3OCc2c(-c3c(Cl)cccc3Cl)noc2C2CC2)cc1 [Compound I-220, 4-[(1S,4S,5R)-5-{[5-cyclopropyl-3-(2,6-dichlorophenyl)-1,2-oxazol-4-yl]methoxy}-2-azabicyclo[2.2.1]heptan-2-yl]-N-{[(1s,4s)-4-hydroxycyclohexyl]sulfonyl}benzamide] | 9.6 | 108% | 8.7 | 154% | – | – | – | – | –
